Assay results: PubChem BioAssay AID256 (DTP/NCI, 2004)
Values joined by “and” are separate entries in the source; they are usually repeats but may differ in a detail not shown here. Equal entries are not always repeated. Inconclusive results and toxic doses are left out.

Test system: CD2F1 mice, L1210 leukemia ip, survival T/C
Assay: NCI In Vivo Anticancer Drug Screen. Data for tumor model L1210 Leukemia (intraperitoneal) in CD2F1 (CDF1) mice
Conditions: endpoint: mean survival time, higher = longer survival
In short: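 Activity against a transplanted murine tumor was judged by comparing the compound group with a vehicle group. The outcome in the treated animals was divided by that in the controls.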

[1] = dose: 100.0 mg/kg/injection, schedule: Q04DX003 (ip), vehicle: saline with Tween-80
[2] = dose: 200.0 mg/kg/injection, schedule: Q04DX003 (ip), vehicle: saline with Tween-80
[3] = dose: 100.0 mg/kg/injection, schedule: Q04DX002 (ip), vehicle: saline with Tween-80
[4] = dose: 400.0 mg/kg/injection, schedule: Q04DX003 (ip), vehicle: saline with Tween-80
[5] = dose: 100.0 mg/kg/injection, schedule: Q01DX001 (ip), vehicle: saline with Tween-80
[6] = dose: 75.0 mg/kg/injection, schedule: Q01DX001 (ip), vehicle: saline
[7] = dose: 150.0 mg/kg/injection, schedule: Q01DX001 (ip), vehicle: saline

For O=[N+]([O-])c1cccc(C=Nc2ccc3c(c2)C(Br)c2ccccc2-3)c1 (stereo unspecified), the T/C [1] was 97 % of control and the T/C [2] was 90 % of control.

Cc1cc(O)c(N=Nc2ccc(C(=O)O)cc2)cc1C was tested, and the T/C (dose: 12.5 mg/kg/injection, schedule: Q01DX009 (ip), vehicle: saline) was 106 % of control, the T/C (dose: 12.5 mg/kg/injection, schedule: Q01DX009 (ip), vehicle: suspension in saline) was 97 % of control and the T/C (dose: 25.0 mg/kg/injection, schedule: Q01DX009 (ip), vehicle: saline) was 110 % of control. The T/C (dose: 25.0 mg/kg/injection, schedule: Q01DX009 (ip), vehicle: suspension in saline) was 101 % of control, the T/C (dose: 50.0 mg/kg/injection, schedule: Q01DX009 (ip), vehicle: saline) was 111 % of control and the T/C (dose: 50.0 mg/kg/injection, schedule: Q01DX009 (ip), vehicle: suspension in saline) was 95 % of control. The T/C (dose: 100.0 mg/kg/injection, schedule: Q01DX009 (ip), vehicle: saline) was 94 % of control, the T/C (dose: 100.0 mg/kg/injection, schedule: Q01DX009 (ip), vehicle: suspension in saline) was 94 % of control and the T/C (dose: 200.0 mg/kg/injection, schedule: Q01DX009 (ip), vehicle: suspension in saline) was 97 % of control. For the same molecule, the T/C (dose: 400.0 mg/kg/injection, schedule: Q01DX009 (ip), vehicle: saline) was 93 % of control and the T/C (dose: 400.0 mg/kg/injection, schedule: Q01DX009 (ip), vehicle: suspension in saline) was 101 % of control.

With O=C(C[n+]1ccccc1)c1ccccc1 the T/C (dose: 25.0 mg/kg/injection, schedule: Q01DX001 (ip), vehicle: saline) was 102 % of control, the T/C (dose: 50.0 mg/kg/injection, schedule: Q01DX001 (ip), vehicle: saline) was 106 % of control and the T/C (dose: 100.0 mg/kg/injection, schedule: Q01DX001 (ip), vehicle: saline) was 96 % of control and 97 % of control. For the same molecule, the T/C [3] was 96 % of control.

With CCOC1CS(=O)(=O)CC(OCC)O1 (stereo unspecified) the T/C [1] was 101 % of control, the T/C [2] was 109 % of control and the T/C [4] was 101 % of control.

With CN(C)c1nc(=[N+](C)C)ss1 the T/C (dose: 50.0 mg/kg/injection, schedule: Q01DX009 (ip), vehicle: saline with Tween-80) was 104 % of control, the T/C (dose: 100.0 mg/kg/injection, schedule: Q01DX009 (ip), vehicle: saline with Tween-80) was 101 % of control and 107 % of control and the T/C [1] was 102 % of control. The T/C (dose: 200.0 mg/kg/injection, schedule: Q01DX009 (ip), vehicle: saline with Tween-80) was 93 % of control and 107 % of control, the T/C [2] was 98 % of control and the T/C (dose: 400.0 mg/kg/injection, schedule: Q01DX009 (ip), vehicle: saline with Tween-80) was 93 % of control. The T/C [4] was 90 % of control.

CCc1nc(N)nc(N)c1-c1ccc(Cl)cc1 was tested, and the T/C (dose: 2.0 mg/kg/injection, schedule: Q03HX008 (ip), vehicle: saline) was 92 % of control, the T/C (dose: 2.0 mg/kg/injection, schedule: Q03HX016 (ip), vehicle: saline) was 89 % of control and the T/C (dose: 2.0 mg/kg/injection, schedule: Q03HX024 (ip), vehicle: saline) was 88 % of control. For the same molecule, the T/C (dose: 4.0 mg/kg/injection, schedule: Q03HX008 (ip), vehicle: saline) was 90 % of control, the T/C (dose: 4.0 mg/kg/injection, schedule: Q03HX016 (ip), vehicle: saline) was 91 % of control and the T/C (dose: 4.0 mg/kg/injection, schedule: Q03HX024 (ip), vehicle: saline) was 86 % of control. For the same molecule, the T/C (dose: 8.0 mg/kg/injection, schedule: Q01DX009 (oral), vehicle: saline) was 92 % of control, the T/C (dose: 8.0 mg/kg/injection, schedule: Q03HX008 (ip), vehicle: saline) was 92 % of control and the T/C (dose: 8.0 mg/kg/injection, schedule: Q03HX016 (ip), vehicle: saline) was 87 % of control. The T/C (dose: 8.0 mg/kg/injection, schedule: Q03HX024 (ip), vehicle: saline) was 88 % of control and 93 % of control, the T/C (dose: 16.0 mg/kg/injection, schedule: Q01DX001 (ip), vehicle: saline) was 107 % of control and the T/C (dose: 16.0 mg/kg/injection, schedule: Q01DX001 (oral), vehicle: saline) was 101 % of control. The T/C (dose: 16.0 mg/kg/injection, schedule: Q01DX009 (ip), vehicle: saline) was 101 % of control, the T/C (dose: 16.0 mg/kg/injection, schedule: Q01DX009 (oral), vehicle: saline) was 95 % of control and the T/C (dose: 16.0 mg/kg/injection, schedule: Q03HX008 (ip), vehicle: saline) was 89 % of control and 91 % of control. For the same molecule, the T/C (dose: 16.0 mg/kg/injection, schedule: Q03HX016 (ip), vehicle: saline) was 91 % of control and 100 % of control, the T/C (dose: 16.0 mg/kg/injection, schedule: Q03HX024 (ip), vehicle: saline) was 90 % of control and 96 % of control and the T/C (dose: 16.0 mg/kg/injection, schedule: Q04DX003 (ip), vehicle: saline) was 88 % of control. The T/C (dose: 16.0 mg/kg/injection, schedule: Q08DX002 (ip), vehicle: saline) was 97 % of control, the T/C (dose: 32.0 mg/kg/injection, schedule: Q01DX001 (ip), vehicle: saline) was 98 % of control and the T/C (dose: 32.0 mg/kg/injection, schedule: Q01DX001 (oral), vehicle: saline) was 96 % of control. For the same molecule, the T/C (dose: 32.0 mg/kg/injection, schedule: Q01DX009 (ip), vehicle: saline) was 106 % of control, the T/C (dose: 32.0 mg/kg/injection, schedule: Q01DX009 (oral), vehicle: saline) was 112 % of control and the T/C (dose: 32.0 mg/kg/injection, schedule: Q04DX003 (ip), vehicle: saline) was 87 % of control. For the same molecule, the T/C (dose: 32.0 mg/kg/injection, schedule: Q08DX002 (ip), vehicle: saline) was 94 % of control, the T/C (dose: 64.0 mg/kg/injection, schedule: Q01DX001 (ip), vehicle: saline) was 100 % of control and the T/C (dose: 64.0 mg/kg/injection, schedule: Q01DX001 (oral), vehicle: saline) was 98 % of control. For the same molecule, the T/C (dose: 64.0 mg/kg/injection, schedule: Q01DX009 (ip), vehicle: saline) was 108 % of control, the T/C (dose: 64.0 mg/kg/injection, schedule: Q01DX009 (oral), vehicle: saline) was 120 % of control and 96 % of control and the T/C (dose: 64.0 mg/kg/injection, schedule: Q04DX003 (ip), vehicle: saline) was 86 % of control and 95 % of control. For the same molecule, the T/C (dose: 64.0 mg/kg/injection, schedule: Q08DX002 (ip), vehicle: saline) was 95 % of control, the T/C (dose: 128.0 mg/kg/injection, schedule: Q01DX001 (ip), vehicle: saline) was 100 % of control and the T/C (dose: 128.0 mg/kg/injection, schedule: Q01DX001 (oral), vehicle: saline) was 91 % of control. The T/C (dose: 128.0 mg/kg/injection, schedule: Q04DX003 (ip), vehicle: saline) was 96 % of control and the T/C (dose: 128.0 mg/kg/injection, schedule: Q08DX002 (ip), vehicle: saline) was 93 % of control and 101 % of control.

CCCC(C)(COC(N)=O)COC(N)=O was tested, and the T/C [1] was 96 % of control, the T/C [2] was 98 % of control and the T/C [4] was 96 % of control.

With CCSC(SCC)C(O)C(O)C1COC(C)(C)O1 (stereo unspecified) the T/C [5] was 93 % of control, the T/C (dose: 200.0 mg/kg/injection, schedule: Q01DX001 (ip), vehicle: saline with Tween-80) was 93 % of control and the T/C (dose: 400.0 mg/kg/injection, schedule: Q01DX001 (ip), vehicle: saline with Tween-80) was 101 % of control.

With N#CCCCCCN=[N+]=[N-] the T/C [6] was 98 % of control and the T/C [7] was 101 % of control.

CC(C)CCC(C)C1CCC2C3CC([N+](=O)[O-])=C4CC(OC(=O)c5ccccc5)CCC4(C)C3CCC12C (stereo unspecified) was tested, and the T/C [1] was 102 % of control, the T/C [2] was 92 % of control and the T/C [4] was 92 % of control.

CC1C(=O)OC2C1CCC1(C)C=CC(=O)C(C)C21 (stereo unspecified) was tested, and the T/C (dose: 5.0 mg/kg/injection, schedule: Q04DX002 (ip), vehicle: saline with Tween-80) was 108 % of control, the T/C (dose: 10.0 mg/kg/injection, schedule: Q04DX002 (ip), vehicle: saline with Tween-80) was 100 % of control and the T/C (dose: 20.0 mg/kg/injection, schedule: Q04DX002 (ip), vehicle: saline with Tween-80) was 108 % of control. The T/C [3] was 116 % of control and the T/C (dose: 200.0 mg/kg/injection, schedule: Q04DX002 (ip), vehicle: saline with Tween-80) was 120 % of control.

In the case of CCCCC/C(C)=C(/C#N)C(=O)OCC, the T/C [6] was 97 % of control, the T/C [7] was 96 % of control and the T/C (dose: 300.0 mg/kg/injection, schedule: Q01DX001 (ip), vehicle: saline) was 97 % of control.

With CC(=O)OC1C=C2CCC3C(CCC4(C)C(OC(C)=O)CCC34)C2(C)CC1 (stereo unspecified) the T/C (dose: 12.5 mg/kg/injection, schedule: Q04DX003 (ip), vehicle: Klucel (hydroxypropylcellulose) (HPC)) was 106 % of control, the T/C (dose: 25.0 mg/kg/injection, schedule: Q04DX003 (ip), vehicle: Klucel (hydroxypropylcellulose) (HPC)) was 103 % of control and the T/C (dose: 50.0 mg/kg/injection, schedule: Q04DX003 (ip), vehicle: Klucel (hydroxypropylcellulose) (HPC)) was 106 % of control.

O=[N+]([O-])c1ccc(C2C3C(c4ccccc4)=NCCCN32)cc1 (stereo unspecified) was tested, and the T/C [1] was 104 % of control, the T/C [2] was 97 % of control and the T/C [4] was 97 % of control.

O=NN(CCCl)C(=O)NC1CCCN(Cc2ccccc2)C1 (stereo unspecified) was tested, and the T/C (dose: 6.25 mg/kg/injection, schedule: Q01DX001 (ip), vehicle: saline with Tween-80) was 106 % of control, the T/C (dose: 12.5 mg/kg/injection, schedule: Q01DX001 (ip), vehicle: saline with Tween-80) was 115 % of control and the T/C (dose: 50.0 mg/kg/injection, schedule: Q01DX001 (ip), vehicle: saline with Tween-80) was 168 % of control. For the same molecule, the T/C [5] was 340 % of control.
